Results taken from US7026475B2, “Positive allosteric AMPA receptor modulators (PAARM), processes for preparing them, and their use as pharmaceutical compositions” (Boehringer Ingelheim Pharma GmbH & Co. KG, priority 2001, dated 2006).

System: AMPA receptors
Assay: Electrophysiological measurement of intensification of the agonist-induced current on cells expressing functional AMPA receptors
Assay type: cell-based
Design: key: + good; + + very good
Details: positive allosteric influence on agonist-induced current; tested at concentrations between 0.3 μmol and 300 μmol
Experimental: The effect of the compounds according to the invention as AMPA receptor modulators was measured electrophysiologically on cells which express functional AMPA receptors. Investigations were carried out to see whether the test substances have a positive allosteric influence on the agonist-induced current.
The test was carried out at concentrations of between 0.3 μmol and 300 μmol.

Structure (SMILES): CC1Nc2ccc(Cl)c3cccc(c23)S1(=O)=O (centres unmarked) [Example 2, 6-chloro-2-methyl-2,3-dihydronaphtho[1,8-de][1,3]thiazine-1,1-dioxide]
- Intensification of the Agonist-Induced Current, Activity: + +

Structure (SMILES): CC1Nc2cccc3cccc(c23)S1(=O)=O (centres unmarked) [Example 1, 2-methyl-2,3-dihydronaphtho[1,8-de][1,3]thiazine-1,1-dioxide]
- Intensification of the Agonist-Induced Current, Activity: +
